Structures are written as SMILES. Some results are limits rather than exact numbers.

Series [1] relates to IMR-32 neuroblastoma cells (amplified MYCN expression). Nature of the series: Cell viability of neuroblastoma cells treated with IC261. The series is classed as cell-based. How it is done: Lentiviral vectors expressing Dox-inducible shRNAs targeting CSNK1ε were transduced into SK-N-AS, a neuroblastoma line with normal MYCN expression, and SK-N-BE2 and IMR-32, neuroblastoma lines with amplified MYCN expression. Expression of the shRNAs were induced with Dox and cell viability was assayed after four days using the CellTiter Glo assay (Promega, Madison, Wis.).
To evaluate the therapeutic potential of CSNK1ε kinase inhibitors for the inhibition of tumor cell growth, the kinase function of CSNK1ε polypeptide was blocked with IC261, a small molecule inhibitor of CSNK1ε and d kinase activity (Mashhoon, N., et al., “Crystal Structure of a Conformation-Selective Casein Kinase-1 Inhibitor,” J Biol Chem 275:20052-20060, 2000). Specifically, the sensitivity of MYC overexpressing cells to IC261 relative to control, was determined in vitro utilizing the neuroblastoma cell lines SK-N-AS (normal MYCN expression) and IMR-32 (amplified MYCN expression). Cultured cells were treated with a range of concentrations of IC261 and percent of cell viability was recorded over four days as described above. […] The difference in cell viability was significant at the 1, 5 and 10 μM concentrations.

Series [2] in a line: Cell viability with increasing IC261, normal c-MYC expressing cells. The series is classed as cell-based. Conditions: human; IC261 at 0.5 log μM and above. How it is done:
(§1) The effect of CSNK1ε on the cell viability of ovarian cancer lines was investigated in vitro. First, HFF (non-cancer primary cells) with control vector, RMG-1 (normal c-MYC expressing), CaOV3 (normal c-MYC expressing), HFF with cMYC induced (amplified c-MYC expressing), TOV112D (amplified c-MYC expressing), and COLO720E (amplified c-MYC expressing) were exposed to increasing concentrations of IC261. Cell viability was assessed as described above.

The test system of series [3] is HFF with cMYC induced, TOV112D, COLO720E (amplified c-MYC expressing). Nature of the series: Cell viability with increasing IC261, cells with amplified c-MYC. It is filed as cell-based, human. As to conditions: IC261 at 0.5 log μM and above. The procedure:
as §1

In series [4] the test system is IGROV-1. Description: IC261 loss of cell viability, ovarian cancer cell panel. As to conditions: Homo sapiens. The series is classed as cell-based. The procedure: as §1
(§2) Similar assays were performed with an additional panel of ovarian cancer cells, including IGROV-1, PE01, DOV13, OAW42, TOV21G, and SKOV3. The log of the half maximal effective concentration (log IC50) was calculated to reflect half the concentration of IC261 required to results in complete loss of cell viability.

Series [5] relates to DOV13. The description is as above. It is filed as cell-based. Conditions: Homo sapiens. The procedure:
as §1, §2

Series [6] deals with OAW42. Described as above. It is filed as cell-based. As to conditions: Homo sapiens, OAW-42. How it is done:
as §1, §2

The test system of series [7] is SKOV3. The description is as above. It is filed as cell-based. As to conditions: Homo sapiens, SK-OV-3. How it is done:
as §1, §2

For series [8], the system named is PE01. Described as above. It is filed as cell-based. As to conditions: Homo sapiens. The procedure:
as §1, §2

Series [9] concerns TOV21G. The series is described as above. The series is classed as cell-based. Conditions: Homo sapiens. The procedure:
as §1, §2

Series [10] concerns PEO4 (cisplatin-resistant derivative) ovarian cancer cells. Description: Cell viability with cisplatin in presence or absence of IC261. The series is classed as cell-based, human. As to conditions: 1 μM IC-261 with low doses of cisplatin. An excerpt:
(§3) Cisplatin, or cis-diamminedichloroplatinum(II) (CDDP), is a chemotherapy drug commonly used to treat numerous types of cancers including ovarian cancer. Cisplatin contains platinum complexes that crosslink DNA, ultimately triggering apoptosis of the cell. However, many treated cancer relapse and display a resistance to cisplatin. Considering the ability of CSNK1ε inhibitors to reduce viability of cells with amplified c-MYC expression, a similar role of CSNK1ε inhibitors on cisplatin resistant cancer cells was investigated. A2780 and A2780-CP70 (resistant derivative), PEO1 and PEO4 (resistant derivative of PE01) ovarian cancer cell lines were cultured in the presence of increasing doses of cisplatin and the presence or absence of IC261. Cell viability was monitored as described above. […] It is noted that the c-MYC expression level in A2780 cells is yet undetermined.

Series [11] deals with IMR-32 (amplified MYCN expression) xenograft blastoma tumors. Description: IMR-32 neuroblastoma xenograft in NOD/SCID mice. The series is classed as in vivo. How it is done:
To evaluate the therapeutic potential of CSNK1ε kinase inhibitors, IC261, a small molecule inhibitor of CSNK1ε and d kinase activity (Mashhoon, N., et al., “Crystal Structure of a Conformation-Selective Casein Kinase-1 Inhibitor,” J Biol Chem 275:20052-20060, 2000) was administered to mice with established IMR-32 (amplified MYCN expression) xenograft blastoma tumors. Specifically, 10 NOD/SCID mice were injected with 1×10^7 IMR-32 blastoma cells. The tumors were allowed to establish for 6 weeks. The mice were randomized into control and IC261 treatment groups. At the start of treatment, the average tumor size for the control mice was 98.8±42.5 mm^3, whereas the average tumor size for the IC261 treatment group was 121.9±46.9 mm^3. The groups were subcutaneously injected once daily for seven days with 20.5 mg/kg of IC261 or DMSO in 200 μl. During treatment, the tumor size was monitored. […] However, at day three the average tumor volume of the IC261-treated mice was reduced, a trend that continued throughout the remaining treatment schedule, ultimately to a volume of about 100 mm^3. In contrast, the tumor volume of the DMSO-treated mice continued to increase to a volume of about 350 mm^3. Histological sections of tumors from each group were prepared after the 8th day of IC261 treatment. The tumor sections were subjected to hematoxylin and eosin (H-E) stain, TUNEL stain, and BrdU staining to ascertain the cell structure, and frequencies of cell apoptosis, and cell proliferation within the tumors. […] The images shown in FIG. 7D are representative of at least 10 fields viewed over two stained sections per animal.

Series [12] deals with PEO1 ovarian cancer cells. Description: Cell viability with cisplatin in presence or absence of IC261. The series is classed as cell-based. As to conditions: 1 μM IC-261 with low doses of cisplatin.
Description: as §3

Series [13] relates to A2780 ovarian cancer cells. Described as above. Conditions: 1 μM IC-261 with increasing doses of cisplatin. The series is classed as cell-based.
Description: as §3

Series [14] deals with A2780-CP70 (cisplatin-resistant) ovarian cancer cells. The description is as above. The series is classed as cell-based. Conditions: 1 μM IC-261 with increasing doses of cisplatin.
Description: as §3

The viability is a read-out of living cells in per cent, often relative to untreated cells. For orientation: IC50 means the midpoint of a concentration-inhibition curve. Take `COc1cc(OC)c(/C=C2/C(=O)Nc3ccccc32)c(OC)c1` [IC261]: in series [1] (48 hours, IC261 0.33 μg/ml and higher), the “percent cell viability, IMR-32 compared to SK-N-AS” value was “lower percent cell viability”. Further, the “difference in cell viability, IMR-32 vs SK-N-AS” value in [1] (72 hours) is “significant difference in cell viability”; in series [1] (96 hours, higher doses), “not statistically significant”. The viability in [2] is no less than 75%. Moreover, the relative viability in series [3] is no more than 25%. The IC50 is 585 µM in series [4]; 7.09 µM in series [5]; 6.61 µM in series [6]; 4.63 µM in series [7]; 8.8 µM in series [8]; 6.55 µM in series [9]. Besides, the “cell viability with low doses of cisplatin” value in [10] and in series [12] was “large reduction in cell viability” throughout. Moreover, in series [11] (20.5 mg/kg subcutaneously once daily for seven days), the “average tumor volume at end of treatment schedule” value was “about 100 mm^3”. Also, the “cell proliferation in tumor sections (BrdU stain) vs DMSO control” value in [11] (after the 8th day of IC261 treatment) is “drastically reduced indications of cell proliferation”. The average tumor volume result in series [11] (day three of treatment, 20.5 mg/kg s.c. daily) is “reduced”. Further, the “tumor volume vs DMSO-treated mice” value in series [11] (first two days of treatment, 20.5 mg/kg s.c. daily) was “no significant difference”. The “response to cisplatin (cell viability)” value in [13] and in series [14] was “greatly sensitized” in each case.

(Values after patent publication US10188630B2, “Methods for identifying and using inhibitors of casein kinase 1 epsilon isoform for inhibiting the growth and/or proliferation of MYC-driven tumor cells” (Fred Hutchinson Cancer Research Center, priority 2010, dated 2019).)
